The text below walks through data of the PolyMetriX glass transition set.

With `*OP(=O)(Oc1ccc(Cl)cc1)Oc1ccc(C(C)(C)c2ccc(*)cc2)cc1` (repeat unit), the glass transition temperature was 71.00 °C.
With `*OS(=O)(=O)c1cccc(C(=O)c2cccc(S(=O)(=O)Oc3ccc(C(C)(C)c4ccc(*)cc4)cc3)c2)c1` (repeat unit), the glass transition temperature came out at 122.00 °C.
Under `*O[Si](C)(C)Oc1ccc(C(C)(C)c2ccc(*)cc2)cc1` (repeat unit) stands 45.00 °C; under `*O[Si](C)(Oc1ccc(C(C)(C)c2ccc(*)cc2)cc1)c1ccccc1` (repeat unit), 58.00 °C.
As for `*Oc1cc(Oc2ccc(C(C)(C)c3ccc(*)cc3)cc2)cc([N+](=O)[O-])c1` (repeat unit), the glass transition temperature amounted to 150.00 °C.
Under `*Oc1ccc(C(C)(C)c2ccc(Oc3c(F)c(F)c(COC(c4cccc(C(OCc5c(F)c(F)c(*)c(F)c5F)(C(F)(F)F)C(F)(F)F)c4)(C(F)(F)F)C(F)(F)F)c(F)c3F)cc2)cc1` (repeat unit) stands 98.00 °C; under `*Oc1ccc(P(=O)(c2ccccc2)c2ccc(Oc3ccc(-c4ccc(*)cc4)cc3)cc2)cc1` (repeat unit), 234.00 °C; under `*Oc1ccc(S(=O)(=O)c2ccc(-c3ccc(-c4ccc(S(=O)(=O)c5ccc(Oc6ccc(-c7ccc(*)cc7)cc6)cc5)cc4)cc3)cc2)cc1` (repeat unit), 264.00 °C.
Under `*Oc1ccc(S(=O)(=O)c2ccc(-c3ccc(S(=O)(=O)c4ccc(Oc5ccc(-c6ccc(-c7ccc(*)cc7)cc6)cc5)cc4)cc3)cc2)cc1` (repeat unit) stands 263.00 °C.
Molecule `*Oc1ccc(S(=O)(=O)c2ccc(Oc3ccc(-c4ccc(-c5ccc(*)cc5)cc4)cc3)cc2)cc1` (repeat unit) had a glass transition temperature of 251.00 °C.
`*Oc1ccc(S(=O)(=O)c2ccc3cc(S(=O)(=O)c4ccc(Oc5ccc(-c6ccc(*)cc6)cc5)cc4)ccc3c2)cc1` (repeat unit) gave a glass transition temperature of 255.00 °C.
As to `*c1ccc(-c2ccc(-n3c(-c4ccc(Oc5ccc(S(=O)(=O)c6ccc(Oc7ccc(-c8nc9ccccc9n8*)cc7)cc6)cc5)cc4)nc4ccccc43)cc2)cc1` (repeat unit), the glass transition temperature was 289.00 °C.
Regarding `*c1ccc(-c2ccc(Oc3ccc(C4(C)CC(C)(C)c5ccc(Oc6ccc(-c7ccc(N8C(=O)c9ccc(Oc%10ccc%11c(c%10)C(=O)N(*)C%11=O)cc9C8=O)cc7)cc6C(F)(F)F)cc54)cc3)c(C(F)(F)F)c2)cc1` (repeat unit), the glass transition temperature turned out to be 249.00 °C.
`*c1ccc(Oc2ccc(-c3cc(-c4ccccc4)c4cc(Oc5ccc6nc(*)c(-c7ccccc7)c(-c7ccccc7)c6c5)ccc4n3)cc2)cc1` (repeat unit) registered a glass transition temperature of 305.00 °C.
Molecule `*c1ccc(Oc2ccc(-c3cc(-c4ccccc4)c4cc(Oc5ccc6nc(*)cc(-c7ccccc7)c6c5)ccc4n3)cc2)cc1` (repeat unit) yielded a glass transition temperature of 266.00 °C.
For `*c1ccc(Oc2ccc(-c3cc(OCCCCCC)c(-c4ccc(Oc5ccc(-c6nnc(*)o6)cc5)cc4)cc3OCCCCCC)cc2)cc1` (repeat unit), the glass transition temperature is 103.00 °C.
For `*c1ccc(Oc2ccc(-c3ccc(-c4ccc(Oc5ccc(-c6c7c(c(*)c8ccccc68)C(=O)N(c6ccccc6)C7=O)cc5)c(C(F)(F)F)c4)s3)cc2C(F)(F)F)cc1` (repeat unit) the value was 287.00 °C; for `*c1ccc(Oc2ccc(-c3ccc(Oc4ccc(-c5nc(*)nc(-c6ccccc6)n5)cc4)cc3)cc2)cc1` (repeat unit), 241.00 °C.
For `*c1ccc(Oc2ccc(-c3ccc(Oc4ccc(-c5nc(-c6ccccn6)nnc5*)cc4)cc3)cc2)cc1` (repeat unit), the glass transition temperature amounted to 230.00 °C.
In the case of `*c1ccc(Oc2ccc(-c3ccc(Oc4ccc(-c5nnc(*)c6c(-c7ccccc7)c(-c7ccc8ccccc8c7)c(-c7ccc8ccccc8c7)c(-c7ccccc7)c56)cc4)cc3)cc2)cc1` (repeat unit), the glass transition temperature stood at 334.00 °C.
In turn, `*c1ccc(Oc2ccc(-c3cnc4cc(Oc5ccc6nc(*)cnc6c5)ccc4n3)cc2)cc1` (repeat unit) came in with a glass transition temperature of 382.00 °C.
`*c1ccc(Oc2ccc(-c3cnc4ccc(-c5ccc6nc(*)cnc6c5)cc4n3)cc2)cc1` (repeat unit): the glass transition temperature turned out to be 280.00 °C.
The molecule `*c1ccc(Oc2ccc(-c3nc4ccc(-c5ccc6nc(*)c(-c7ccccc7)c(-c7ccccc7)c6c5)cc4c(-c4ccccc4)c3-c3ccccc3)cc2)cc1` (repeat unit) returned a glass transition temperature of 300.00 °C.
For `*c1ccc(Oc2ccc(-c3nnc(*)o3)cc2)cc1` (repeat unit), the glass transition temperature turned out to be 240.00 °C.
In the case of `*c1ccc(Oc2ccc(-n3c(=O)c4c(Oc5ccc(OCCCCCCCC)cc5)c5c(=O)n(*)c(=O)c5c(Oc5ccc(OCCCCCCCC)cc5)c4c3=O)cc2)cc1` (repeat unit), the glass transition temperature is 234.50 °C.
For `*c1ccc(Oc2ccc(C(=O)c3ccc4cc(C(=O)c5ccc(Oc6ccc(-c7nc(-c8ccc(-c9nc(*)c(-c%10ccccc%10)[nH]9)cc8)[nH]c7-c7ccccc7)cc6)cc5)ccc4c3)cc2)cc1` (repeat unit) the value was 281.00 °C.
For `*c1ccc(Oc2ccc(C(C)(C)c3ccc(Oc4ccc(-c5nc(*)nc(-c6ccccc6)n5)cc4)cc3)cc2)cc1` (repeat unit) the value was 228.00 °C; for `*c1ccc(Oc2ccc(C(C)(C)c3ccc(Oc4ccc(-c5nnc(*)n5-c5ccc(S(=O)(=O)c6ccccc6)cc5)cc4)cc3)cc2)cc1` (repeat unit), 198.00 °C.
`*c1ccc(Oc2ccc(C(C)(C)c3ccc(Oc4ccc(-c5nnc(*)n5-c5ccc(S(C)(=O)=O)cc5)cc4)cc3)cc2)cc1` (repeat unit): the glass transition temperature is 230.00 °C.
As for `*c1ccc(Oc2ccc(C(C)(C)c3ccc(Oc4ccc(-c5nnc(*)n5-c5cccc(C(F)(F)F)c5)cc4)cc3)cc2)cc1` (repeat unit), the glass transition temperature was found to be 190.00 °C.
For `*c1ccc(Oc2ccc(C(C)(C)c3ccc(Oc4ccc(-c5nnc(*)n5-c5ccccc5)cc4)cc3)cc2)cc1` (repeat unit), the glass transition temperature is 207.00 °C.
With `*c1ccc(Oc2ccc(C(C)(c3ccccc3)c3ccc(Oc4ccc(-c5nc(-c6ccccn6)nnc5*)cc4)cc3)cc2)cc1` (repeat unit), the glass transition temperature is 232.00 °C.
For `*c1ccc(Oc2ccc(C(c3ccc(Oc4ccc(-c5nnc(*)c6c(-c7ccccc7)c(-c7ccc8ccccc8c7)c(-c7ccc8ccccc8c7)c(-c7ccccc7)c56)cc4)cc3)(C(F)(F)F)C(F)(F)F)cc2)cc1` (repeat unit), the glass transition temperature was 291.00 °C.
On to `*c1ccc(Oc2ccc(S(=O)(=O)c3ccc(Oc4ccc(-c5cc(*)[nH]n5)cc4)cc3)cc2)cc1` (repeat unit), for which the glass transition temperature stood at 260.00 °C.
In turn, `*c1ccc(Oc2ccc(S(=O)(=O)c3ccc(Oc4ccc(-c5nc(-c6cccc(-c7nc(*)c(-c8ccccc8)[nH]7)c6)[nH]c5-c5ccccc5)cc4)cc3)cc2)cc1` (repeat unit) came in with a glass transition temperature of 292.00 °C.
Under `*c1ccc2oc(-c3ccc(Oc4ccc(C(c5ccc(Oc6ccc(-c7nc8cc(C(*)(C(F)(F)F)C(F)(F)F)ccc8o7)cc6)cc5)(C(F)(F)F)C(F)(F)F)cc4)cc3)nc2c1` (repeat unit) stands 255.00 °C.
